No end group written: not given here.

One test deals with tight junction. The test is described as follows: activity as tight junction regulators. The settings on record: for activity as tight junction regulators: fragment alone. From the text: See US 2016/0022760, which is hereby incorporated by reference in its entirety. […] It is believed that an aminopeptidase located within the brush borders of the lumen surface may create larazotide-derived fragments, including fragments missing N-terminal glycine residues.

For test [1], the system named is intestinal disease symptoms. The settings on record: clinical trials, cited from earlier work.

“GVLVQPG [larazotide-derived fragment missing N-terminal glycine residue]”: in the test on tight junction, the “activity as tight junction regulators” value was “largely inactive”.
Take GGVLVQPG [Larazotide]: the “activity at reducing intestinal disease symptoms” value in test [1] (higher doses (e.g., 1 mg and 2 mg doses)) is “attenuation of activity, or no activity at all”. In test [1] (lower doses (e.g., 0.5 mg dose)), the “benefit at reducing intestinal disease symptoms” value is “benefit”. Further, in the test on tight junction (fragments GVLVQPG and VLVQPG mixed with full length larazotide), the “activity as tight junction regulator” value is given as “completely abolished”.
On to “VLVQPG [larazotide-derived fragment missing N-terminal glycine residues]”, for which the “activity as tight junction regulators” value in the test on tight junction is “largely inactive”.

The values are drawn from US20210069286A1, “COMPOSITIONS AND METHODS FOR TREATING OR PREVENTING HYPERGLYCEMIA, INSULIN RESISTANCE, AND […] DAMAGE” (9 Meters Biopharma, Inc., priority 2018, published 2021).
